The source made the active and inactive calls.
Legend:
Genome polyprotein = Genome polyprotein (dengue virus type 2, UniProt P29990); test: Dengue-2 NS5 methyltransferase inhibitors, primary screen, biochemical, confirmation dose response (AID 588689); format: functional
[1] = cytotoxicity toward NIH3T3 fibroblasts, dose response, counter-screen, cell-based, ATP luminescence, mouse fibroblasts (AID 2010); format: functional;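 note: cells exposed to compound for about 90 hours before reading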
[2] = inhibitors of intracellular T. cruzi replication, confirmation, NIH3T3 host cells, beta-gal luminescence (AID 2044); format: functional, cell-based;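 note: intracellular parasites grown in NIH/3T3 mouse fibroblasts as host cells; luminescent beta-galactosidase reporter signal from transgenic T. cruzi replicating inside host cells; inhibitors lower the luminescence signal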
[3] = Shn3 3'UTR reporter inhibitors, dose response, cell-based, Clone20 osteoblasts, firefly luciferase, cherry-picked (AID 624132); format: functional;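 note: firefly luciferase luminescence from reporter carrying the Shn3 3'UTR in osteoblasts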
[4] = control 3'UTR Renilla luciferase suppression, dose response, counter-screen for Shn3 inhibitor project, cell-based, Clone20-Shn3RL, cherry-picked (AID 624133); format: functional
HeLa = test: HeLa cell cytotoxicity, dose response, cytotoxicity control for MITF activator project, CellTiter-Glo luminescence, cherry-pick samples (AID 540259); format: functional, cell-based; details: Homo sapiens
cells = format: functional
[5] = target: T1, Calpain-2 catalytic subunit (Sus scrofa, UniProt P43367); test: pig calpain II inhibitor potency, dose response, biochemical, fluorogenic peptide substrate (AID 1420); format: functional
T1 sequence (P43367 whole entry): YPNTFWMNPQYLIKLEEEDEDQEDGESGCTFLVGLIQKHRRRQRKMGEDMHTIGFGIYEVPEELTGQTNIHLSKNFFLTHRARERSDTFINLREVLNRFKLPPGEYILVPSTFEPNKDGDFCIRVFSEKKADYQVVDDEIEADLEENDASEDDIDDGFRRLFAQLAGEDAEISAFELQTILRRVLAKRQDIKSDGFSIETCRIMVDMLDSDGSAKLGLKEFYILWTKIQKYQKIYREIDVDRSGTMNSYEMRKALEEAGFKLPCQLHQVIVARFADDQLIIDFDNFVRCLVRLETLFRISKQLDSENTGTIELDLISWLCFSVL

Cytochrome P450 1A2 = target: T2, Cytochrome P450 1A2 (Homo sapiens, UniProt P05177);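 note: PubChem cytochrome P450 panel assay, CYP1A2 panel member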
T2 sequence (P05177 whole entry): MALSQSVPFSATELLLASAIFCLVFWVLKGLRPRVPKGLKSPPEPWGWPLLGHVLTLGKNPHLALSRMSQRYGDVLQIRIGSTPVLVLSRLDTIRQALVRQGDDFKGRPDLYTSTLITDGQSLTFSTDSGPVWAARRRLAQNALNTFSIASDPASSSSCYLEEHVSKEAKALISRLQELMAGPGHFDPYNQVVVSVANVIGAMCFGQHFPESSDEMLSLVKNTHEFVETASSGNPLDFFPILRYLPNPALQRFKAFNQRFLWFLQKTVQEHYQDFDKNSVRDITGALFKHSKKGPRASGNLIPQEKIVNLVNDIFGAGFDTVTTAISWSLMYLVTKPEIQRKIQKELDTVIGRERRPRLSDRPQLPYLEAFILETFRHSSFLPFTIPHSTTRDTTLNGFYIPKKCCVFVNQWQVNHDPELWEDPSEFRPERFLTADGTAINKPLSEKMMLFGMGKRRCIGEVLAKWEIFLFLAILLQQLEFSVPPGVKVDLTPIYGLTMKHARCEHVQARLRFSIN

Cytochrome P450 2D6 = Cytochrome P450 2D6 (Homo sapiens, UniProt P10635);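 note: CYP2D6 member of a cytochrome P450 panel assay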
Cytochrome P450 2C19 = Cytochrome P450 2C19 (Homo sapiens, UniProt P33261); test: Cytochrome panel assay with activity outcomes. Panel member name: p450-cyp2c19 Compounds with AC50 equal or less than 10 uM are considered active; format: functional; details: read-out: AC50
Cytochrome P450 2C9 = Cytochrome P450 2C9 (Homo sapiens, UniProt P11712)
Nonstructural protein 1 = Nonstructural protein 1 (Influenza A virus, UniProt Q194T2); format: functional, Influenza A virus (A/California/07/2009(H1N1))
[6] = inhibitors of firefly luciferase expression or activity, dose response, H4 neuroglioma cells, luminescence (AID 1990); format: functional, cell-based
[7] = inhibitors of SNCA 5'UTR-driven reporter translation, confirmation, H4 neuroglioma cells, luminescence (AID 1988); format: functional, cell-based
[8] = Luminescence Cell-Based Dose Response HTS to Identify Inhibitors of 5'UTR Stem-Loop Driven Prion Protein mRNA Translation in H4 Neuroglioblastoma Cells. [Related pubchem assays: 1827 (Project Summary), 1813 (Primary HTS)]; format: functional
Cytochrome P450 3A4 = Cytochrome P450 3A4 (Homo sapiens, UniProt P08684);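 note: CYP3A4 tested as one member of a cytochrome P450 panel screen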
[9] = HepG2 cell cytotoxicity, dose response, cytotoxicity control for Shn3 inhibitor project, CellTiter-Glo, cherry-picked (AID 624134); format: functional, cell-based
[10] = microbe, parasite or virus in culture; format: functional; details: Mycobacterium tuberculosis
[11] = target: T3, Carboxy-terminal domain RNA polymerase II polypeptide A small phosphatase 1 (Homo sapiens, UniProt Q9GZU7); test: inhibitors of CTDSP1, concentration-response testing, biochemical assay, absorbance-based, actives from ultra-high-throughput screening (AID 540297); format: functional
T3 sequence (Q9GZU7 whole entry): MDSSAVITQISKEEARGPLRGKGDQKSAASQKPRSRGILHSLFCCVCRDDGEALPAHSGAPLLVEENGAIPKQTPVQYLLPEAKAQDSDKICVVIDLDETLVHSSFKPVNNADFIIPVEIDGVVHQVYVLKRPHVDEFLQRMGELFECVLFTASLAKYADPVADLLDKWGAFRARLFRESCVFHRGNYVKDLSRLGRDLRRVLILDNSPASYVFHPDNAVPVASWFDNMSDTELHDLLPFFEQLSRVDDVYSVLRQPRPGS

Paired box protein Pax-8 = Paired box protein Pax-8 (Homo sapiens, UniProt Q06710); test: inhibitors of PAX8-driven TPO luciferase reporter, dose response, RMG-I cells, cherry-pick (AID 687027); format: functional, cell-based;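 note: luciferase reporter driven by Pax8 target thyroperoxidase promoter measured by SteadyGlo luminescence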
H9c2 = test: cells; format: functional, cell-based; details: Rattus norvegicus, H9c2, Myocardium
[12] = target: T4, Rac GTPase-activating protein 1 (Homo sapiens, UniProt Q9H0H5); test: MgcRacGAP GTPase-activating activity inhibitors, confirmation, biochemical, ADP Hunter fluorescence, primary and confirmatory (AID 624330); format: functional
T4 sequence (Q9H0H5 whole entry): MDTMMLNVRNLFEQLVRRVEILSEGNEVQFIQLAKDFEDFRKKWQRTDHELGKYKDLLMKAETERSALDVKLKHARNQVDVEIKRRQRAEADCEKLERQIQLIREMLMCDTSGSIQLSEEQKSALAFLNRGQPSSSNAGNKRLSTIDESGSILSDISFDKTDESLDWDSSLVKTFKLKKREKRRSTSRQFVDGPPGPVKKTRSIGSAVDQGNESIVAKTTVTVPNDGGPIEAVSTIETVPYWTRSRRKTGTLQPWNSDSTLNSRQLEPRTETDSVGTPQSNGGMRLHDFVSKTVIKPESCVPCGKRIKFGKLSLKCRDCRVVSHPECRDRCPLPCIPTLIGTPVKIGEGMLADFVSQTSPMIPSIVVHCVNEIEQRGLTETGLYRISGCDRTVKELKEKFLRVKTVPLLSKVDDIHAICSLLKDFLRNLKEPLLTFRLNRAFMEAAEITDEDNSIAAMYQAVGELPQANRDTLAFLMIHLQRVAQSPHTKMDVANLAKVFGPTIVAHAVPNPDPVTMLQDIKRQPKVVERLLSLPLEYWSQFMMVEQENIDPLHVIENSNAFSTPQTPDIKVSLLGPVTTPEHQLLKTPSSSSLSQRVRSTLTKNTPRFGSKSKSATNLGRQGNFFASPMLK

[13] = Luminescence Cell-Based Dose Confirmation HTS to Identify Inhibitors of Platelet Dense Granule Release. [Related pubchem assays: 1663 (Primary HTS), 1678 (Summary of Project)]; format: functional
[14] = target: Luciferin 4-monooxygenase (Photinus pyralis, UniProt P08659); test: firefly luciferase enzyme inhibitors, dose response, biochemical, luminescence (AID 1891)
[15] = target: FAD-linked sulfhydryl oxidase ALR (Homo sapiens, UniProt P55789); test: inhibitors of human ALR sulfhydryl oxidase, dose response, biochemical, H2O2 detection, luminescence, cherry-pick (AID 493248)
[16] = Luminescence Cell-Based Dose Retest to Confirm Inhibitors of Cancer Stem Cells. [Related pubchem assays (depositor defined):AID2717, AID2721]; format: functional; details: Homo sapiens

Genome polyprotein, sequence (P29990 2492-3391 limits assumed): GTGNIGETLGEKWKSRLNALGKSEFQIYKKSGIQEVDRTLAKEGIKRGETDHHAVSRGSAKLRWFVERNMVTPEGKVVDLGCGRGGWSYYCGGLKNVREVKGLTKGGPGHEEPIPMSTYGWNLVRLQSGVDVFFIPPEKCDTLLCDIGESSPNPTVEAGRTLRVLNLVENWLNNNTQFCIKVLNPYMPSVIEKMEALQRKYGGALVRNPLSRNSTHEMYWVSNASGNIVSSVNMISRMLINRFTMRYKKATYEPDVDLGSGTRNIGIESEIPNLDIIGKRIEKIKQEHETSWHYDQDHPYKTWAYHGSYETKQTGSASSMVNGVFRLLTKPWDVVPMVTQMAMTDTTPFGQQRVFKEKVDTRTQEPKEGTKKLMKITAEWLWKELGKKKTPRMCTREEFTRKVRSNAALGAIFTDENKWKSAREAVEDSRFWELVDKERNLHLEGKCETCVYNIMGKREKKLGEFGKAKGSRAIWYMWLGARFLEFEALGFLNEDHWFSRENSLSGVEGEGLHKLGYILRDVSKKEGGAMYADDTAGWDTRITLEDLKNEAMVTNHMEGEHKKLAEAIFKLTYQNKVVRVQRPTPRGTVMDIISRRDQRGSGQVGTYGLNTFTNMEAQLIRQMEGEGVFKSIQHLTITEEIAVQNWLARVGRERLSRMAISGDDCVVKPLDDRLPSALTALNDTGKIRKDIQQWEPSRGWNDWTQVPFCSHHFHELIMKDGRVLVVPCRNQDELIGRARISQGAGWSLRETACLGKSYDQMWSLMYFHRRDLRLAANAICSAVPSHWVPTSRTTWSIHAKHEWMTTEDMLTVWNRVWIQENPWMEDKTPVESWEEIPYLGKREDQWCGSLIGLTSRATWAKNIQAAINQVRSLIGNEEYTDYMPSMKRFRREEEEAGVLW
Cytochrome P450 2C9, sequence (P11712 whole entry): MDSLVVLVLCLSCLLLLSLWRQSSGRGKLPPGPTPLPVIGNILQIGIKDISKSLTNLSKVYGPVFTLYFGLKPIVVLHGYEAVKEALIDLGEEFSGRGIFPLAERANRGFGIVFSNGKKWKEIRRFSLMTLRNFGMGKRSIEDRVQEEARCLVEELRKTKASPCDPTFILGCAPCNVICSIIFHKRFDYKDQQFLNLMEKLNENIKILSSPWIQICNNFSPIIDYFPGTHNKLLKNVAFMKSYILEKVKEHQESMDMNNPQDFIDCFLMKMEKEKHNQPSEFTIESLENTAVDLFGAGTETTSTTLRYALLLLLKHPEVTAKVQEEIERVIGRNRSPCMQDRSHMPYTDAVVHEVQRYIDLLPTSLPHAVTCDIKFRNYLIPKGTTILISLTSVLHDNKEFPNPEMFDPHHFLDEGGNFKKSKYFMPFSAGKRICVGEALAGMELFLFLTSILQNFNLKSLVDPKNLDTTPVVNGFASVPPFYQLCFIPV
Nonstructural protein 1, sequence (Q194T2 whole entry): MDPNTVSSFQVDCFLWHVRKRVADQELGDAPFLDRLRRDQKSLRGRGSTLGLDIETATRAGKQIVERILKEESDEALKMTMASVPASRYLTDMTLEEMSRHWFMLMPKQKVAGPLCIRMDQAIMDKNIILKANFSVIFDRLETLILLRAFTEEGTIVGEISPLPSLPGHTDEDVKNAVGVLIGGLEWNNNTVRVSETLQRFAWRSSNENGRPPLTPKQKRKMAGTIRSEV
Paired box protein Pax-8, sequence (Q06710 whole entry): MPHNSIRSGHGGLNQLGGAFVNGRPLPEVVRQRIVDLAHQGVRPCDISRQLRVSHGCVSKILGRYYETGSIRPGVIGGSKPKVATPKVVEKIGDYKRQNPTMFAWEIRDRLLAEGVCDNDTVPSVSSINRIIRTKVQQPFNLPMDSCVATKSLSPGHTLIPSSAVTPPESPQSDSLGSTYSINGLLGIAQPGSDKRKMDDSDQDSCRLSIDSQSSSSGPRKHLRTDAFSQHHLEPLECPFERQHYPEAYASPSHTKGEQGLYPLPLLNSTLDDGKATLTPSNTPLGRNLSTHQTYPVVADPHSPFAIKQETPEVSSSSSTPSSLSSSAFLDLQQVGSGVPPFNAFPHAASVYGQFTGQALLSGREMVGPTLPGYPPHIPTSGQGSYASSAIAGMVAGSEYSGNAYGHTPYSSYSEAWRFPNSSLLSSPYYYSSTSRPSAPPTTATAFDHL
Cytochrome P450 2D6, sequence (P10635 whole entry): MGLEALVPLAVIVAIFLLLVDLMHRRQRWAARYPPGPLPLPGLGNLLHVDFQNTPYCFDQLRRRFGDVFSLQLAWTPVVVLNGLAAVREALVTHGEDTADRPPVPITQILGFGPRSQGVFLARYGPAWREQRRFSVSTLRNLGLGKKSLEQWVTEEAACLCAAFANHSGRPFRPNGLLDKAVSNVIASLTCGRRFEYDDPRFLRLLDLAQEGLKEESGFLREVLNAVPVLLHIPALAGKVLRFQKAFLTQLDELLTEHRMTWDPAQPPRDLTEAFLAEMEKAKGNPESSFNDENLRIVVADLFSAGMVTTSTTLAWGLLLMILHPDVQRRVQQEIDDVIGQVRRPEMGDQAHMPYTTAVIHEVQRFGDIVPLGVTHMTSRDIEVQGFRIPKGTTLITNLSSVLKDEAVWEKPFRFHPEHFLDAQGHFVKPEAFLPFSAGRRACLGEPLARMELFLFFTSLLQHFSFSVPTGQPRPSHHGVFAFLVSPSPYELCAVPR
Luciferin 4-monooxygenase, sequence (P08659 whole entry): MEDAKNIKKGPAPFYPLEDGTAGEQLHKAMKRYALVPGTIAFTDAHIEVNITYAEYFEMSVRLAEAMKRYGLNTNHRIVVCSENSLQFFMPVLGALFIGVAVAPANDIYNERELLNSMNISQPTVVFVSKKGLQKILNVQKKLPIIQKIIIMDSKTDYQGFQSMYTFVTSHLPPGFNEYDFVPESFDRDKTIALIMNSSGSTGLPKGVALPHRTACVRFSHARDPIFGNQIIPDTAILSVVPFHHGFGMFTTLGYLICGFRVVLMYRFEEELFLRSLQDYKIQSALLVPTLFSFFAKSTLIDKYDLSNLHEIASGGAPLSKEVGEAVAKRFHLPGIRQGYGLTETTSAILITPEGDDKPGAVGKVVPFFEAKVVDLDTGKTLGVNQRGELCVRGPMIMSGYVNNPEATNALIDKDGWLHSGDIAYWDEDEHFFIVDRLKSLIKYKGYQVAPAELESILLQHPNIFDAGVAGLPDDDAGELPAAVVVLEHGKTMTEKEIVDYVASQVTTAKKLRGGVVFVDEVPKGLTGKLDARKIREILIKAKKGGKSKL
Cytochrome P450 3A4, sequence (P08684 whole entry): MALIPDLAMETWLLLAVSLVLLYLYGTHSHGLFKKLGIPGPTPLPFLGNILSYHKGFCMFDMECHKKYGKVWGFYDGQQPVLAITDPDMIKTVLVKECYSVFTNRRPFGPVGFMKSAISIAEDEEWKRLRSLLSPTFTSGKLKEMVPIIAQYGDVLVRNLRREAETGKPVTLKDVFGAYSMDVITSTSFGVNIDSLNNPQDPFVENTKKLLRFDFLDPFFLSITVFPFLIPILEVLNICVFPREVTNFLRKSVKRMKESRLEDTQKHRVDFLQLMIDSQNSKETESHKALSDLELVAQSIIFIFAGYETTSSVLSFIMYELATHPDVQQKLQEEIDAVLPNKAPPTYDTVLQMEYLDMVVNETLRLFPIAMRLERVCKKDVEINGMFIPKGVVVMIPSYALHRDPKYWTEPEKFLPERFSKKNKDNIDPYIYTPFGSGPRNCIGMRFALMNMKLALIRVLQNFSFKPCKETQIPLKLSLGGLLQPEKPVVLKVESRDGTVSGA
FAD-linked sulfhydryl oxidase ALR, sequence (P55789 whole entry): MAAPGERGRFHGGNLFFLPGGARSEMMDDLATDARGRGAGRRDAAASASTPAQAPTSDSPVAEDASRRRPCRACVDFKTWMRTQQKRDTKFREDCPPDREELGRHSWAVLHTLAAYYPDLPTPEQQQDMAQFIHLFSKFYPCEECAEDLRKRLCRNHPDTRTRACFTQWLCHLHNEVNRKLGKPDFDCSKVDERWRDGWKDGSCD
Cytochrome P450 2C19, sequence (P33261 whole entry): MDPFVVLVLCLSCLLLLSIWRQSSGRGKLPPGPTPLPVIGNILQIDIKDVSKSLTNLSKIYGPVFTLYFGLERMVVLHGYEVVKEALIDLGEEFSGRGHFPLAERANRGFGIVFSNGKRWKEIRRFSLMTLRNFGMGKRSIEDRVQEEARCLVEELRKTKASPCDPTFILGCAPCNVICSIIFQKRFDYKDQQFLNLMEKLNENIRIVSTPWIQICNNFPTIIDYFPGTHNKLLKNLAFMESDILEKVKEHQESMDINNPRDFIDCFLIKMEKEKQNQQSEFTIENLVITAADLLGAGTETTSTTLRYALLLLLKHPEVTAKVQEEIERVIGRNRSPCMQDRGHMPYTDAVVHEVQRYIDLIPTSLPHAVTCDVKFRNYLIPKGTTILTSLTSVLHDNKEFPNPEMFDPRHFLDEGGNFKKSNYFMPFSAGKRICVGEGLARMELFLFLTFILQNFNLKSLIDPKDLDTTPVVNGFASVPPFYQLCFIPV

## C=CS(=O)(=O)c1sc(Cl)c(N2CCOCC2)c1[N+](=O)[O-]
Genome polyprotein
  IC50: 11 µM (active)
[1]
  EC50: 7.27 µM (active)
[2]
  EC50: 5.42 µM (active)
[3]
  AC50: 1.31 µM (active)
[4]
  AC50: 13.3 µM (active)

## Cc1ccc(C(=O)Oc2cccc(-n3cnnn3)c2)cc1
HeLa
  AC50: > 350 µM (inactive)
cells
  IC50: 13.7 µM (active)
[5]
  IC50: 10.5 µM (not active)

## COC(=O)C1=CN(c2cccc(C)c2)C=C(C(=O)OC)C1c1cc(OC)c(O)c([N+](=O)[O-])c1
Genome polyprotein
  IC50: 56.5 µM (active)

## CC(=O)c1cccc(NC(=O)Cc2ccc3c(c2)CCCC3)c1
Cytochrome P450 1A2
  AC50: 25.1 µM (inconclusive)
Cytochrome P450 2D6
  AC50: 4.47 µM (inconclusive)
Cytochrome P450 2C19
  AC50: 3.16 µM (inconclusive)
Cytochrome P450 2C9
  AC50: inconclusive

## CCOC(=O)C1=NN(c2ccccc2)C(=O)/C1=C\c1ccc(N(C)C)cc1
Nonstructural protein 1
  IC50: > 100 µM (active)

## CCCCCc1cc(=O)oc2c(C(CCN(CC)CC)c3ccc(N(C)C)cc3)c(OC)cc(OC)c12 (configuration not stated)
Nonstructural protein 1
  IC50: 9.17 µM (active)

## CC(=O)N=C(N)Nc1nc(=O)c2ccccc2s1
HeLa
  AC50: 69.2 µM (active)

## CNc1nc(Cl)nc(NC(C)(C)C)n1
[6]
  EC50: 12.7 µM (active)
[7]
  EC50: > 120 µM (not active)
[8]
  EC50: > 120 µM (not active)
Cytochrome P450 2C9
  AC50: inconclusive

## CCNc1ncc2nc(-c3cn(C)c4ccccc34)c(=O)n(-c3ccccc3)c2n1
Cytochrome P450 3A4
  AC50: 6.31 µM (inconclusive)
Cytochrome P450 1A2
  AC50: 15.8 µM (inconclusive)
Cytochrome P450 2D6
  AC50: 25.1 µM (inconclusive)
Cytochrome P450 2C9
  AC50: inconclusive

## COc1ccc(C2/C=C\CN(S(=O)(=O)c3ccc(C)cc3)[C@H](Cc3ccccc3)C(=O)N2Cc2ccc(F)cc2)cc1 (some centres not stated)
[9]
  AC50: > 70 µM (inactive)
[3]
  AC50: 12.9 µM (active)
[4]
  AC50: 25.5 µM (active)

## O=C1NC(=O)C(=Cc2ccc3ccccc3c2)C(=O)N1
Genome polyprotein
  IC50: 50.8 µM (active)

## CC(C)(C)C(=O)N1CCN(c2ccc(NC(=O)c3ccc([N+](=O)[O-])o3)cc2)CC1
[9]
  AC50: > 70 µM (inactive)
[10]
  CC50: 2.96 µM (active)
[3]
  AC50: 2.45 µM (active)
[4]
  AC50: 7.74 µM (active)

## O=C(Cc1ccc(Cl)cc1)Nc1ccc(N2CCN(C(=O)c3ccco3)CC2)cc1
[9]
  AC50: > 70 µM (inactive)
[3]
  AC50: > 70 µM (inactive)
[4]
  AC50: 6.62 µM (active)

## COc1ccc(OCC(=O)NNC(=O)c2ccc(-c3ccccc3)cc2)cc1
[11]
  IC50: 7.77 µM (active)
Cytochrome P450 2C9
  AC50: inconclusive

## C=CC[C@H](CC(=O)N(CCO)Cc1ccccc1)C(=O)N[C@@H](COC(=O)[C@H](CC=C)CC(=O)OC(C)(C)C)Cc1c[nH]c2ccccc12
Paired box protein Pax-8
  AC50: 15.9 µM (active)

## COc1cc(-c2cnc3c(NC=O)cc(-c4cccc(NC(C)=O)c4)cn23)cc(OC)c1OC
H9c2
  IC50: > 79 µM (inactive)
Paired box protein Pax-8
  AC50: 2.88 µM (active)

## C[C@@H]1CCCCO[C@@H](CN(C)Cc2ccc(C(F)(F)F)cc2)[C@H](C)CN([C@H](C)CO)C(=O)c2cc(NS(=O)(=O)c3ccc(Cl)cc3)ccc2O1
Paired box protein Pax-8
  AC50: 8.48 µM (active)

## O=S1(=O)N=C(N/N=C/c2ccccn2)c2ccccc21
Nonstructural protein 1
  IC50: 3.27 µM (active)

## O=C(Cn1cncn1)N/N=C/c1ccccc1O
Nonstructural protein 1
  IC50: 22.1 µM (active)

## Oc1ccc(/C=N/Nc2cccc(Cl)n2)c(O)c1
[12]
  IC50: 29 µM (active)
[13]
  EC50: 1.39 µM (active)
HeLa
  AC50: 316 µM (active)
[14]
  EC50: 1.66 µM (active)

## COc1cccc(/C=N/N2C(=O)CSC2=S)c1O
Nonstructural protein 1
  IC50: 2.19 µM (active)

## Clc1ccc(N/N=C/c2cccnc2)cc1
[15]
  AC50: 0.426 µM (active)
[16]
  AC50: 4.65 µM (active)
HeLa
  AC50: 41.7 µM (active)

## CCNC(=O)C(=O)N/N=C/c1cc([N+](=O)[O-])ccc1O
Nonstructural protein 1
  IC50: 2.44 µM (active)

From ChEMBL document CHEMBL1201862, “PubChem BioAssay data set” (2004)
